Data: patent publication US8470772B2, “Leptin agonist and methods of use” (Temple University—Of The Commonwealth System of Higher …, priority 2008, dated 2013)
Non-standard residues stand in square brackets, D forms with d. No end group written: not given here. *: point of attachment. βGlc = OC[C@H]1O[C@@H](*)[C@H](O)[C@@H](O)[C@@H]1O; Tyr(3,5-I2) = N[C@@H](Cc1cc(I)c(O)c(I)c1)C(=O)O; Dap = NC[C@H](N)C(=O)O

Experiments:
MCF-7 cells = test: MCF-7 cell stimulation (cell growth) assay, cell counts by trypan blue exclusion; assay type: cell-based, human; settings: for MCF-7 cell count increase: no leptin
Source text: For the evaluation of the biological activity of the synthesized leptin Site III peptide fragments, human cell lines were selected in which the ObR expression level is known. Two ObR-positive human cell models were used: MCF-7 breast cancer cells and DU-45 prostate cancer cells. Both cell lines express ObR, and leptin and leptin analogues stimulate their growth (C. Garofalo, et al., Clin. Cancer Res., 2004, 10, 6466-6475; C. Garofalo, et al., Clin. Cancer Res., 2006, 12, 1447-1453). Normal mammary epithelial MCF-10 cells lacking ObR were used as a negative control (X. Hu, et al., J. Natl. Cancer Inst., 2002, 94, 1704-1711).
Biological activity of the Site III peptides was assayed as follows. MCF-7 cells were stimulated with 6 nM full-sized leptin. The smaller leptin fragments and analogs were added to the cell culture at a concentration of 10 nM, 100 nM or 1 μM. Leptin at […] concentration stimulated MCF-7 cell growth by approximately 40%, in line with previous observations (C. Garofalo, et al., Clin. Cancer Res., 2004, 10, 6466-6475). All Site III peptides bound to the extracellular domain of ObR as documented by dot-blot or Western-blot analysis. […] In fact, it reversed leptin induced stimulation of MCF-7 cells at as low as 10 nM peptide concentration, with an additional 50% reduction in cell counts at 1 μM. When the assay was run at a more reliably measurable 1 μM peptide concentration, a consistent 6% decrease in cell numbers could be observed compared to the leptin only samples. In summary, in the presence of exogenously added full-sized leptin these assays verified the strong antagonist activity of the Site III Ala,Ala mutant.
The cell stimulation activity of the Site III peptides was assayed as follows. Human leptin was purchased from R&D Systems and used at a concentration of 100 ng/mL (approximately 6 nM). MCF-7 and DU-45 cells naturally expressing ObR were grown in a standard medium DMEM:F12 plus 5% fetal bovine serum. MCF-10 was grown in serum-free mammalian epithelial growth medium supplemented with 100 ng/mL cholera toxin. Seventy percent confluent cultures were synchronized in serum-free medium (DMEM plus 10 μM FeSO4, plus 0.5% albumin) for 24 h and then treated with leptin and/or peptides (different doses) for 5 days. Cell counts before and after treatment were determined by counting the cells using trypan blue exclusion. All assays were conducted in triplicate and repeated at least twice.

[1] = test system: ovariectomised (OVX) ewes; test: Voluntary food intake in animals with icv infusion; assay type: in vivo
Procedure: This experiment was conducted using ovariectomised (OVX) ewes (n=4/group: 55 kg). Ovariectomy removes cyclic effects of ovarian steroids, which affect sensitivity to leptin. The experiments were performed in an isolated room with an ambient temperature range of 17-22° C. […] peptide was administered to animals by way of Silastic cannulae introduced into the lateral cerebral ventricle (H8) for intracerebroventricular (icv) infusion. For infusion, pyrogen-free leptin peptide was dissolved in 0.1 mM HCl and diluted in artificial cerebrospinal fluid (aCSF) to a concentration of 10 μg/100 μl. All infusions were initiated at 0900 hours and control animals received an infusion of aCSF 100 μl/hour.

## Tyr(I2)-Serβ(Glc)-Thr-Glu-Va1-Va1-Ala-Leu-Ser-Arg-Leu-Dap(Ac) ([Tyr(3,5-I2)]S(βGlc)TEVVALSRL[Dap](Ac)-NH2) [E1Free]
MCF-7 cells; 100 nM peptide
  MCF-7 cell count increase: 81%
MCF-7 cells; 1000 nM peptide, in the presence of 6 nM leptin
  further increase of leptin-induced cell stimulation: 84%
MCF-7 cells; 1000 nM peptide
  MCF-7 cell count increase: 114%
MCF-7 cells; in the presence and absence of leptin
  overall agonist character on cells expressing ObR: full agonists
[1]; 10 μg/hour for 7 hours icv, program-fed OVX ewes, P<0.05
  reduction of voluntary food intake compared to controls (aCSF): approx. 25%
[1]; icv infusion, OVX ewes, over the course of two days
  effect on voluntary food intake: voluntarily reduce the amount of food taken in
